Source: patent US20240190880A1 (THE REGENTS OF THE UNIVERSITY OF MICHIGAN, priority 2021, published 2024)
Read-outs that look alike come from different tables or passages of the source.

Molecular target: T1, ER (Homo sapiens, UniProt P03372)
T1 construct: host or cells: T47D and MCF7 human breast cancer cells
T1 sequence (P03372 1-595): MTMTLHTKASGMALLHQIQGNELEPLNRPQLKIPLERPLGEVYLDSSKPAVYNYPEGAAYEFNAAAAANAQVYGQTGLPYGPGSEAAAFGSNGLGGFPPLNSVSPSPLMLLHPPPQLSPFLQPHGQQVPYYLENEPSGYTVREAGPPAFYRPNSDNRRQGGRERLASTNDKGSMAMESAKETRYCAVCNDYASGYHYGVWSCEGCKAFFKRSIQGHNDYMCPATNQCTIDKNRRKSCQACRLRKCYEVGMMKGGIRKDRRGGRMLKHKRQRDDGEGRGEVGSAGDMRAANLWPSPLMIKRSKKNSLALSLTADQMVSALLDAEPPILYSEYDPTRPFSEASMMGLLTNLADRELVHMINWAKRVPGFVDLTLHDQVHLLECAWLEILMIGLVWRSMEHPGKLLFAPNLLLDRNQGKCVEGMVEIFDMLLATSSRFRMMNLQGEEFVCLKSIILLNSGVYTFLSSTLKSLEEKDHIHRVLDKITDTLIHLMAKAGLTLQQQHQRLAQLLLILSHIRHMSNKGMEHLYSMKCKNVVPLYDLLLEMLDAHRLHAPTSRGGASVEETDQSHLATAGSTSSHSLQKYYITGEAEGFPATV
Assay: ER degradation activity, in-cell western blot analysis in T47D cells
Type: cell-based
Procedure, shortened: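 T47D cells grown in DMEM with 10% FBS were treated with compounds for 16 hours at 0.5% DMSO final. ER was detected by in-cell western using 680/800 near-infrared secondary antibodies. Residual ER is given as percent of untreated and DMSO-treated wells set to 100%.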

[1] = 16 hours, Table A does not say which cell line (T47D or MCF7), read-out: Potency (DC50)
[2] = compounds 16 hours, Table A does not say whether T47D or MCF7, read-out: Potency (DC50)

Compound | DC50 [1] | DC50 [2]
C[C@@H]1Cc2cc(O)ccc2[C@@H](c2c(F)cc(N3CCN(C(=O)[C@H]4CC[C@H](N5Cc6cc7c(cc6C5)C(=O)N(C5CCC(=O)NC5=O)C7=O)CC4)CC3)cc2F)N1CC(F)F (mixture of isomers) [E 353, rac-6-((1S,4r)-4-(4-(4-((1S,3R)-2-(2,2-difluoroethyl)-6-hydroxy-3-methyl-1,2,3,4-tetrahydroisoquinolin-1-yl)-3,5-difluorophenyl)piperazine-1-carbonyl)cyclohexyl)-2-(2,6-dioxopiperidin-3-yl)-6,7-dihydropyrrolo[3,4-f]isoindole-1,3(2H,5H)-dione] | > 100 nM | –
C[C@@H]1Cc2c(ccc3[nH]ncc23)[C@@H](c2c(F)cc(C3=CCC(C(=O)N4CCC(N5Cc6cc7c(cc6C5)C(=O)N(C5CCC(=O)NC5=O)C7=O)CC4)CC3)cc2F)N1CC(F)F (mixture of isomers) [E 468, 6-(1-(4′-((6S,8R)-7-(2,2-difluoroethyl)-8-methyl-6,7,8,9-tetrahydro-3H-pyrazolo[4,3-f]isoquinolin-6-yl)-3′,5′-difluoro-2,3,4,5-tetrahydro-[1,1′-biphenyl]-4-carbonyl)piperidin-4-yl)-2-(2,6-dioxopiperidin-3-yl)-6,7-dihydropyrrolo[3,4-f]isoindole-1,3(2H,5H)-dione] | – | 10 to 100 nM
O=C1CCC(N2C(=O)c3cc4c(cc3C2=O)CN(C2CCN(C(=O)[C@H]3C[C@@H](Oc5ccc([C@@H]6c7ccc(O)cc7CC[C@@H]6c6ccccc6)cc5)C3)CC2)C4)C(=O)N1 (mixture of isomers) [E 490, 2-(2,6-dioxopiperidin-3-yl)-6-(1-((1SR,3SR)-3-(4-((1R,2S)-6-hydroxy-2-phenyl-1,2,3,4-tetrahydronaphthalen-1-yl)phenoxy)cyclobutane-1-carbonyl)piperidin-4-yl)-6,7-dihydropyrrolo[3,4-f]isoindole-1,3(2H,5H)-dione] | – | 10 to 100 nM
O=C1CCC(N2Cc3cc4c(cc3C2=O)CN(C(=O)[C@H]2CC[C@H](CN3CC(Oc5ccc([C@@H]6c7ccc(O)cc7CC[C@@H]6c6ccccc6)cc5)C3)CC2)C4)C(=O)N1 (mixture of isomers) [E 491] | – | 10 to 100 nM
CN(C1CN(c2ccc([C@@H]3c4ccc(O)cc4CC[C@@H]3c3ccccc3)cc2)C1)[C@H]1CC[C@@H](C(=O)N2Cc3cc4c(cc3C2)C(=O)N(C2CCC(=O)NC2=O)C4)CC1 (single isomer, unassigned) [E 356] | > 100 nM | –
O=C1CCC(N2Cc3cc4c(cc3C2=O)CN(C(=O)[C@H]2CC[C@H](N3CC(Oc5ccc([C@@H]6c7ccc(O)cc7CC[C@@H]6c6ccccc6)cc5)C3)CC2)C4)C(=O)N1 (single isomer, unassigned) [E 357] | < 10 nM | –
C[C@H]1Cc2c([nH]c3ccccc23)[C@H](c2c(F)cc(N3CC4(CCN(C(=O)CN5Cc6cc7c(cc6C5)C(=O)N(C5CCC(=O)NC5=O)C7=O)CC4)C3)cc2F)N1CC(F)F (stereo in doubt) [E 84, 6-(2-(2-(4-((1S,3S)-2-(2,2-difluoroethyl)-3-methyl-2,3,4,9-tetrahydro-1H-pyrido[3,4-b]indol-1-yl)-3,5-difluorophenyl)-2,7-diazaspiro[3.5]nonan-7-yl)-2-oxoethyl)-2-(2,6-dioxopiperidin-3-yl)-6,7-dihydropyrrolo[3,4-f]isoindole-1,3(2H,5H)-dione] | < 10 nM | –
C[C@H]1Cc2c([nH]c3ccccc23)[C@H](c2c(F)cc(N3CC4(CCN(C(=O)CN5Cc6cc7c(cc6C5)C(=O)N(C5CCC(=O)NC5=O)C7)CC4)C3)cc2F)N1CC(F)F (stereo in doubt) [E 85, 3-(6-(2-(2-(4-((1S,3S)-2-(2,2-difluoroethyl)-3-methyl-2,3,4,9-tetrahydro-1H-pyrido[3,4-b]indol-1-yl)-3,5-difluorophenyl)-2,7-diazaspiro[3.5]nonan-7-yl)-2-oxoethyl)-1-oxo-3,5,6,7-tetrahydropyrrolo[3,4-f]isoindol-2(1H)-yl)piperidine-2,6-dione] | < 10 nM | –
O=C1CCC(N2C(=O)c3cc4c(cc3C2=O)CN(CC2CCN(CC3CN(c5ccc([C@@H]6c7ccc(O)cc7CC[C@@H]6c6ccccc6)cc5)C3)CC2)C4)C(=O)N1 (stereo partly drawn) [E244, 2-(2,6-dioxopiperidin-3-yl)-6-((1-((1-(4-((1R,2S)-6-hydroxy-2-phenyl-1,2,3,4-tetrahydronaphthalen-1-yl)phenyl)azetidin-3-yl)methyl)piperidin-4-yl)methyl)-6,7-dihydropyrrolo[3,4-f]isoindole-1,3(2H,5H)-dione] | 10 to 100 nM | –
O=C1CCC(N2C(=O)c3cc4c(cc3C2=O)CN(CC2(F)CCN(CC3CN(c5ccc([C@@H]6c7ccc(O)cc7CC[C@@H]6c6ccccc6)cc5)C3)CC2)C4)C(=O)N1 (stereo partly drawn) [E245, 2-(2,6-dioxopiperidin-3-yl)-6-((4-fluoro-1-((1-(4-((1R,2S)-6-hydroxy-2-phenyl-1,2,3,4-tetrahydronaphthalen-1-yl)phenyl)azetidin-3-yl)methyl)piperidin-4-yl)methyl)-6,7-dihydropyrrolo[3,4-f]isoindole-1,3(2H,5H)-dione] | > 100 nM | –

Other lines, results leading:

DC50 [1] | DC50 [2] | Compound
– | > 100 nM | O=C1CCC(N2C(=O)c3cc4c(cc3C2=O)CN(CC(=O)N2CCC3(CC2)CCN(c2ccc([C@@H]5c6ccc(O)cc6OC[C@@H]5c5ccccc5)cc2)CC3)C4)C(=O)N1 (mixture of isomers) [E 467, 2-(2,6-dioxopiperidin-3-yl)-6-(2-(9-(4-(7-hydroxy-3-phenylchroman-4-yl)phenyl)-3,9-diazaspiro[5.5]undecan-3-yl)-2-oxoethyl)-6,7-dihydropyrrolo[3,4-f]isoindole-1, 3(2H,5H)-dione]
– | > 100 nM | CC1(C(=O)N2CCC(N3Cc4cc5c(cc4C3)C(=O)N(C3CCC(=O)NC3=O)C5=O)CC2)CCN(c2ccc([C@@H]3c4ccc(O)cc4CC[C@@H]3c3ccccc3)cc2)CC1 (mixture of isomers) [E 488, rac-2-(2,6-dioxopiperidin-3-yl)-6-(1-(1-(4-((1R,2S)-6-hydroxy-2-phenyl-1,2,3,4-tetrahydronaphthalen-1-yl)phenyl)-4-methylpiperidine-4-carbonyl)piperidin-4-yl)-6,7-dihydropyrrolo[3,4-f]isoindole-1,3(2H,5H)-dione]
– | 10 to 100 nM | O=C1CCC(N2C(=O)c3cc4c(cc3C2=O)CN(C[C@H]2CC[C@H](C(=O)N3CC(Oc5ccc([C@@H]6c7ccc(O)cc7CC[C@@H]6c6ccccc6)cc5)C3)CC2)C4)C(=O)N1 (mixture of isomers) [E 498, 2-(2,6-dioxopiperidin-3-yl)-6-(((IRS,4SR)-4-(3-(4-((1R,2S)-6-hydroxy-2-phenyl-1,2,3,4-tetrahydronaphthalen-1-yl)phenoxy)azetidine-1-carbonyl)cyclohexyl)methyl)-6,7-dihydropyrrolo[3,4-f]isoindole-1,3(2H,5H)-dione]
– | 10 to 100 nM | O=C1CCC(N2Cc3cc4c(cc3C2=O)CN(C[C@H]2CC[C@H](C(=O)N3CC(Oc5ccc([C@@H]6c7ccc(O)cc7CC[C@@H]6c6ccccc6)cc5)C3)CC2)C4)C(=O)N1 (mixture of isomers) [E 499, 3-(6-(((IRS,4SR)-4-(3-(4-((1R,2S)-6-hydroxy-2-phenyl-1,2,3,4-tetrahydronaphthalen-1-yl)phenoxy)azetidine-1-carbonyl)cyclohexyl)methyl)-1-oxo-3,5,6,7-tetrahydropyrrolo[3,4-f]isoindol-2(1H)-yl)piperidine-2,6-dione]
> 100 nM | – | CN(C1CN(c2ccc([C@@H]3c4ccc(O)cc4CC[C@@H]3c3ccccc3)cc2)C1)[C@H]1CC[C@H](C(=O)N2Cc3cc4c(cc3C2)C(=O)N(C2CCC(=O)NC2=O)C4)CC1 (single isomer, unassigned) [E 355]
> 100 nM | – | O=C1CCC(N2Cc3cc4c(cc3C2=O)CN(C(=O)[C@H]2CC[C@@H](N3CC(Oc5ccc([C@@H]6c7ccc(O)cc7CC[C@@H]6c6ccccc6)cc5)C3)CC2)C4)C(=O)N1 (single isomer, unassigned) [E 358]
< 10 nM | – | O=C1CCC(N2Cc3cc4c(cc3C2=O)CN(C(=O)[C@H]2CC[C@H](N3CC(Nc5ccc([C@@H]6c7ccc(O)cc7CC[C@@H]6c6ccccc6)cc5)C3)CC2)C4)C(=O)N1 (single isomer, unassigned) [E 360]
> 100 nM | – | O=C1CCC(N2Cc3cc4c(cc3C2=O)CN(C(=O)[C@H]2CC[C@@H](N3CC(Nc5ccc([C@@H]6c7ccc(O)cc7CC[C@@H]6c6ccccc6)cc5)C3)CC2)C4)C(=O)N1 (single isomer, unassigned) [E 361]
10 to 100 nM | – | C[C@H]1Cc2c([nH]c3ccccc23)[C@H](c2c(F)cc(N3CC4(CCCN(C(=O)CN5Cc6cc7c(cc6C5)C(=O)N(C5CCC(=O)NC5=O)C7=O)C4)C3)cc2F)N1CC(F)F (stereo in doubt) [E 80, 6-(2-(2-(4-((1S,3S)-2-(2,2-difluoroethyl)-3-methyl-2,3,4,9-tetrahydro-1H-pyrido[3,4-b]indol-1-yl)-3,5-difluorophenyl)-2,6-diazaspiro[3.5]nonan-6-yl)-2-oxoethyl)-2-(2,6-dioxopiperidin-3-yl)-6,7-dihydropyrrolo[3,4-f]isoindole-1,3(2H,5H)-dione]
< 10 nM | – | O=C1CCC(N2C(=O)c3cc4c(cc3C2=O)CN(C2CCN(CC3CN(c5ccc([C@@H]6c7ccc(O)cc7CC[C@@H]6c6ccccc6)cc5)C3)CC2)C4)C(=O)N1 (stereo partly drawn) [E243, 2-(2,6-dioxopiperidin-3-yl)-6-(1-((1-(4-((1R,2S)-6-hydroxy-2-phenyl-1,2,3,4-tetrahydronaphthalen-1-yl)phenyl)azetidin-3-yl)methyl)piperidin-4-yl)-6,7-dihydropyrrolo[3,4-f]isoindole-1,3(2H,5H)-dione]
